In patent publication US11207379B2, “Peptides with anti-cancer activity” (IDP DISCOVERY PHARMA, S.L., priority 2016, dated 2021):

Assays:
[1] = tested on: JB healthy cells (BJ, fibroblast, normal skin); test: Viability assay (MTT, Alamar Blue, hexosaminidase), 72 h; format: cell-based
Procedure: BJ, fibroblast (normal skin), ATCC® CRL-2522™
Cell lines A549, MCF-7 and RAMOS were cultured in incubator under CO2 (6%) at 37° C. in DMEM high glucose (Dulbecco's Modified Eagle Solution, Gibco-BRL 31966-21) medium with 10% fetal bovine serum inactivated (FBS) (Gibco-BRL 10106-169). Cell lines HL-60 and MM.1S were cultured in incubator at 37° C. in RPMI-1640 (Sigma R8758) medium with 10% of fetal bovine serum inactivated (FBS) and 2 mM glutamine (Sigma G7513). Cell lines BJ were cultured in incubator under CO2 (6%) at 37° C. in Eagle's Minimum Essential Medium (Sigma, M-2279) with 10% fetal bovine serum inactivated (FBS) (Gibco-BRL 10106-169).
During the amplification step and the assays adherent cells were rinsed with DPBS (Dulbecco's Phosphate Buffered Saline, Sigma D1283) three times and afterward treated for 5 minutes with trypsin ([…]) (Gibco-BRL, 15400054) in solution of DPBS at 37° C., and, once detached, transferred in the culturing medium. […] Cells were counted in a Neubauer chamber after labelling with Tripan-Blue. […]
Cells were incubated during 72 h in incubator under CO2 atmosphere at 37° C. Cell viability was measured by means of MTT (3-(4,5-dimethylthiazol-2-yl)-2.5-diphenyltetrazolium bromide) assay, Alamar Blue® (Biosource DAL1100) and Hexosaminidase activity test, consecutively, following manufacturer instructions. […]

[2] = target: MCF-7, epithelial (breast cancer); test: as above; format: cell-based; settings: MCF7 cells, read-out: EC50
In short: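 Cells seeded at 5000/well, compounds added 24 h later from 100 μM in 1:1 serial dilutions, triplicate, 72 h at 37° C. Viability read consecutively by MTT (A570), Alamar Blue fluorescence and hexosaminidase activity, normalized to untreated control = 100%; EC50 from variable-slope sigmoidal fit.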

[3] = target: RAMOS, B lymphocyte (Burkitt's Lymphoma); test: as above; format: cell-based; settings: Ramos cells, read-out: EC50
In short: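 Ramos cells seeded at 10000 cells/well in DMEM + 10% FBS; after 24 h, compounds added as 1:1 serial dilutions from 100 μM and incubated 72 h at 37 °C. Viability read sequentially by MTT (A570), Alamar Blue (535/590) and hexosaminidase activity, normalized to untreated cells; EC50 from variable-slope sigmoidal fit.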

[4] = target: HL-60, promyeloblast (acute myelocytic leukemia, AML); test: as above; format: cell-based; settings: HL-60 cells, read-out: EC50
In short: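 HL-60 seeded at 10000 cells/well in RPMI-1640/10% FBS, dosed after 24 h from 100 μM top concentration in 1:1 serial dilutions, incubated 72 h at 37° C. Viability read consecutively by MTT, Alamar Blue and hexosaminidase, normalised to untreated cells; EC50 from variable-slope sigmoidal fit, triplicates.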

[5] = tested on: MM1S cells; test: Subcutaneous xenograft model, tumor volume and survival; format: in vivo, CB17-SCID immunosuppressed mice; settings: 5 mg/kg i.p. each 12 h; for Tumor Volume: in mm³ (unit assumed)
Procedure: CB17-SCID immunosuppressed mice (female) of 6-7 weeks old housed and handled in a pathogen-free zone. They were purchased from Janvier Labs. All experiments were carried out within the facilities of the University of Salamanca.
Groups Studied: • Control: Medium (PBS) i.p. each 12 hours from Monday to Friday. • S03 i.p. each 12 hours from Monday to Friday (in PBS until end point) • S04 15 mg/kg i.p. each 12 hours from Monday to Friday (in PBS until end point) • S09 5 mg/kg i.p. each 12 hours from Monday to Friday (in PBS until end point)
Subcutaneous xenoaraft model: The mice were shaved on the right flank and anesthetized by inhalation to decrease their mobility, were inoculated subcutaneously with 3×10^6 MM1S cells in 50 μl of RPMI-1640 medium and 50 μl of Corning® Matrigel® Basement Membrane Matrix. When the tumors became palpable (at 30 days), the mice were randomized into the different groups (5 mice in the control group and 4 in the remaining groups) according to the tumor volume. This was estimated by measurements with a caliper of the two tumor diameters and using the following formula of a spheroid: V=(a·b^2·π)/6, where a and b correspond to the longest and shortest diameter, respectively. Tumor volume was monitored three times per week.
Survival evaluation: Mice were sacrificed when their tumor diameter reached 2 cm. The time to reach the endpoint criterion was estimated from the day of treatment start. The statistical differences were evaluated using Kaplan-Meier curves with the log rank test. Statistical analyzes were performed using the SPSS-17.0 program.

Substance: RQRRNXLKRAFAXLRDQ-OH [IDP-S03]
- EC50 [1]: > 100 µM
- EC50 [2]: 32 ± 5 µM
- EC50 [3]: ~13 µM
- EC50 [4]: ~6.6 µM
- differences in survival with respect to the control [5]: 9.5
- tumor reduction with respect to the control ([5]; at the end-time (when the control is sacrificed)): 50%
- % Tumor Volume ([5]; day of treatment 1 (= 100)): 100%
- Tumor Volume ([5]; day of treatment 1): 59.0
- % Tumor Volume ([5]; day of treatment 5, relative to day 1): 193.2%
- Tumor Volume ([5]; day of treatment 5): 114.1
- % Tumor Volume ([5]; day of treatment 10, relative to day 1): 443.9%
- Tumor Volume ([5]; day of treatment 10): 262.1
- % Tumor Volume ([5]; day of treatment 15, relative to day 1): 661.6%
- Tumor Volume ([5]; day of treatment 15): 390.7
- % Tumor Volume ([5]; day of treatment 19, relative to day 1): 969.5%
- Tumor Volume ([5]; day of treatment 19): 572.6
- % Tumor Volume ([5]; day of treatment 26, relative to day 1): 2481.2%
- Tumor Volume ([5]; day of treatment 26): 1465.2
- Mean survival, Average ([5]; from treatment start until tumor diameter 2 cm): 40.5 days
